The values that follow come from patent US5016655A, “Cigarette manufacturing process” (priority 1989, dated 1991).

The conditions of data set [1]: cited from earlier work; for Boiling Point: Table V.
In a further data set the test system is human. The conditions noted are these: cited from earlier work.
The test system of data set [2] is localization of radioactivity of [14C]NNN in bronchial epithelium. Nature of the data set: alcohols by inhalation, localization of radioactivity of [14C]NNN (Table VII). Format: in vivo, mice. The settings on record: for potency as inhibitor in mice: mouse, in vivo. The method, then: Additional alcohols were tested for their effects on the localization of radioactivity of [^14 C]NNN in bronchial epithelium when the alcohols were administered by inhalation. For these studies, two ml of the alcohol were placed in the bottom of a 600 ml glass beaker. A wire mesh platform was constructed so that the mouse was positioned approximately three-quarter to one inch above the alcohol. The beaker was kept tightly sealed unless otherwise indicated. All mice were fasted overnight, except where noted, and sacrificed one hour after intravenous [^14 C]NNN administration. These mice were also processed for whole-body autoradiography. Although the protocols varied slightly as summarized below, these minor differences should not effect the results.
A. Exposures in beakers maintained at 50° C. (plus or minus
B. Exposure in beakers at room temperature. Beakers were
C. Beakers equilibrated with alcohols at least 20 min in […]

The test system of data set [3] is localization of radioactivity ([14C]NNN) in bronchial epithelium. Nature of the data set: effect of substances on localization of radioactivity one hour after intravenous [14C]NNN (Table VI). Format: in vivo, mice. The settings on record: for response on the uptake of radioactivity in the bronchial epithelium / decrease in the localization of radioactivity in bronchial epithelium: solids at ambient temperature; for decrease in the localization of radioactivity in bronchial epithelium: one hour after intravenous [14C]NNN. The text has this:
Table VI below lists the compounds tested for their effect on the localization of radioactivity in bronchial epithelium one hour after intravenous administration of [^14 C]NNN. Unless indicated otherwise, the compounds were parenterally administered acutely at various times prior to [^14 C]NNN. In many cases only one mouse was studied for each compound. […].
Effect of substances on the localization of radioactivity in bronchial epithelium of mice one hour after intravenously receiving [^14 C] nitrosonornicotine.
For all the remaining compounds the general protocol was to administer the potential blocker some minutes prior to administration of the [^14 C]NNN. Potential blockers were given orally, intraperitoneally or by inhalation, and the [^14 C]NNN was given intravenously.

Another data set deals with rats. The conditions noted are these: cited from earlier work.
Data set [4] has as its system localization of nitrosamines (NNN, NNK) in tissues. Nature of the data set: nitrosamine delocalization / blocking, general statements. The settings on record: in vivo.
Data set [5] has as its system localization of radioactivity ([14C]NNN) in bronchial epithelium. Nature of the data set: orally administered alcohols, localization of radioactivity after intravenous [14C]NNN. It is filed as in vivo, mice. The settings on record: gavage 1.0 g/kg, 20 min before iv [14C]NNN. The method, then: For each of these alcohols, the mouse was fasted overnight, the alcohol in aqueous solution at a dose of 1.0 g/kg was administered by gavage and after twenty minutes the [^14 C]NNN was injected intravenously. All mice were sacrificed one hour after the [^14 C]NNN treatment and processed for whole-body autoradiography,as described previously.

Data set [6] relates to nitrosamine formation on epithelial membranes; tumor development. The settings on record: cited from earlier work.
Data set [7] has as its system localization of radioactivity ([14C]NNN) in salivary duct and bronchial epithelium and liver. The experiment in a line: whole-body autoradiography of [14C]NNN localization after oral alcohols (Example 1, FIG. 1). It is filed as in vivo, male C57BL/6J mice. The method, then:
One hour later, the mice were anesthetized lightly with ether and frozen by immersion in dry ice/hexane. Twenty u-thick whole-body sagittal sections of the frozen mice were taken onto Scotch tape and were then processed for whole-body autoradiography by known methods. See W. Waddell et al., Drug Fate and Metabolism: Methods and Techniques, E. R. Garrett and J. L. Hirtz, Eds. […] Photometric density in areas of the developed autoradiographs was measured with an ADG Instruments photometer and a photocell with an aperture of three mm lying on the easel of a photographic enlarger. The X-ray film was placed in the enlarger and raised to produce a magnification of thirty-five times on the easel.
NNN. […] (Twenty minutes is the average time it takes for alcohols introduced by oral intubation into mice to reach the peak blood level.)
The number within each bar thereof represents the dose in g/kg of that alcohol which was administered orally twenty minutes before the [^14 C] NNN was given intraveously. The mice were frozen one hour after receiving the [^14 C] NNN. The means for each mouse were from fifteen measurements on random areas of that site (five absorbancies on each of three autoradiographs) after setting blood in each on zero.

Entries after “also recorded” stand apart in the source; their conditions may differ. Read-outs that look alike come from different tables or passages of the source.

Consider `OCCC(O)CO` (centres unmarked) [1,2,4-ButanetrioI, 1,2,4-butanetriol], for which the “Boiling Point” value in [1] was 172 °C. Moreover, in the data set with human (Table V), the “Toxicity” value is “Non-toxic”. With `CC(O)CCO` (centres unmarked) [1,3 Butanediol], the “Boiling Point” value in data set [1] was 207 °C. In the data set on human (Table V), the “Toxicity” value is “Non-toxic”. For the compound `CCCCCCO` [1-hexanol], the “potency as inhibitor in mice” value in data set [2] is given as “among the most potent inhibitors”.

Take `CC(C)[C@@H]1CC[C@@H](C)C[C@H]1O` [1-menthol]: the “response on the uptake of radioactivity in the bronchial epithelium” value (from here on “response on the uptake of radioactivity”) in data set [3] is recorded as “minimal response”. For `CCC(CC)CO` [2-Ethyl butyl alcohol], the “Boiling Point” value in [1] was 149 °C. Besides, the “Toxicity” value in the data set on human (Table V) is “Low-toxicity”. Regarding `CCCCC(CC)CO` (centres unmarked) [2-ethyl hexanol], in the data set with human (Table V), the “Toxicity” value is listed as “Low-toxicity”. The “Acute Oral LD50” value in the data set on rats (rat, in vivo, po) is 3.2-7.1.

On to `CCCCCCC(C)O` (centres unmarked) [2-octanol], for which the boiling points in data set [1] was 180 °. Further, the “potency as inhibitor in mice” value in data set [2] is “among the most potent inhibitors”. Further, the “effectiveness against NNN or NNK” value in [4] was “against NNK”.

As to `CCCC(C)O` (centres unmarked) [2-pentanol], the “decrease in the localization of radioactivity in bronchial epithelium” value (shortened to “decrease in the localization”) in data set [5] is recorded as “significant decrease”. Regarding `CC1CCCC(O)C1` (centres unmarked) [3-methylcyclohexanol], the boiling points in data set [1] is given as 174 °. Besides, the “potency compared with cyclohexanol” value in data set [2] (inhalation) was “even more potent than cyclohexanol”. Moreover, in [2], the “potency as inhibitor in mice” value was “among the most potent inhibitors”.

As to `CCCCCCC(C)O` (centres unmarked) [Capryl alcohol], in data set [1], the “Boiling Point” value is 178 °C. Also, the “Toxicity” value in the data set with human (Table V) is “Low toxity”. Take `CCCCCCCCCCCCCCCCO` [Cetyl alcohol, hexadecanol]: the “Boiling Point” value in data set [1] was 344 °C. The “Toxicity” value is listed as “Non-toxic” with human (Table V) and “non-toxic” in the data set on human. Take `OCC=Cc1ccccc1` [Cinnamyl alcohol]: the “Boiling Point” value in data set [1] is 257.5 °C.

As for `C[S+](C)[O-]` [DMSO, dimethylsulfoxide], the “decrease of radioactivity in bronchial epithelium, oral vs ip” value in [3] (given orally) is recorded as “less decrease”. In data set [4], the “nitrosamine delocalization / inhibition of nitrosamine localization” value (from here on “nitrosamine delocalization / inhibition”) was “found to delocalize nitrosamines”. Regarding `CCCCCCCCCCCCO` [Lauryl alcohol], the “Boiling Point” value in data set [1] is 255 °C. Also, the “Toxicity” value with human (Table V) is “Low-toxicity”. Regarding `CC(C)(O)C(C)(C)O` [Pinacol], the “Boiling Point” value in [1] is 174 °C. Further, the “Toxicity” value with human (Table V) was “Low-toxicity”.

For the compound `[Se]` [Selenium], the “effect on tumor development” value in data set [6] was “inhibit tumor development”. As for `CCCCCCCCCCCCCCCCCCO` [Stearyl alcohol, octadecanol], in data set [1], the “Boiling Point” value is 210 °C. In addition, the figures for the “Toxicity” value in the data set on human (Table V) and in the data set on human were “Non-toxic” and “non-toxic”, respectively. For the compound `O=C1O[C@H]([C@@H](O)CO)C(O)=C1O` [Vitamin C, ascorbic acid], the “effect on formation of nitrosamines on epithelial membranes” value in data set [6] is reported as “prevent the formation of nitrosamines”. On to `CCC(C)CO` (centres unmarked) [active amyl alcohol, 2-methyl-1-butanol], for which, in data set [5], the “decrease in the localization” value was “significant decrease”. For the same compound, the “Acute Oral LD50” value with rats (rats, oral) was 4.9 q/kg. For the compound `S=C=NCc1ccccc1` [benzyl isothiocyanate], the “nitrosamine delocalization / inhibition” value in [4] was “found to delocalize nitrosamines”.

Turning to `NCCCC(N)(C(=O)O)C(F)F` (centres unmarked) [difluoromethylornithine], the “response on the uptake of radioactivity” value in data set [3] is listed as “minimal response”. Turning to `CCCCCCCCCCCCO` [dodecanol, 98%, dodecanol], the “Acute Oral LD50” value in the data set on rats (rats, oral) was 40 q/kg. For `CCO` [ethanol], in data set [7] (20 min before iv [14C]NNN), the “localization of radioactivity in salivary duct and bronchial epithelium and in both periportal and central areas of the liver” value was “reduced”. On to `CC(C)CCO` [isoamyl alcohol], for which the “decrease in the localization” value in data set [5] is listed as “significant decrease”. The “Acute Oral LD50” value in the data set on rats (rats, oral) is reported as 1.30 q/kg.

As for `CC(C)CO` [isobutyl alcohol, isobutanol], the “decrease in the localization” value in data set [5] is “significant decrease”. In addition, the “Acute Oral LD50” value in the data set on rats (rats, oral) is recorded as 2.46 q/kg. On to `CC(C)O` [isopropyl alcohol, isopropanol], for which the “Acute Oral LD50” value with rats (rats, oral) is given as 5.84 q/kg. For the compound `CC1CCC(C(C)C)C(O)C1` (centres unmarked) [menthol, reference compound], the “Boiling Point” value in data set [1] is 216 °C. Besides, the “Toxicity” value in the data set with human (Table V) was “Flavor Agent”. Besides, the “nitrosamine delocalization / inhibition” value in [4] is “does not have the same nitrosamine blocking effect; also recorded: does not inhibit nitrosamine localization”. With `CC(C)(C(=O)c1cccnc1)c1cccnc1` [metyrapone], the “decrease in the localization” value in [3] is recorded as “significant decrease”.

Take `CCCCCCCCCCO` [n-Decyl alcohol]: the “Boiling Point” value in data set [1] is 210 °C. The “Toxicity” value in the data set on human (Table V) is reported as “Low-toxicity”. For `CCCCCCCCCO` [n-Nonyl alcohol], the “Toxicity” value in the data set on human (Table V) is “Low-toxicity”. On to `CCCCCCCCO` [n-Octyl alcohol], for which the “Boiling Point” value in data set [1] was 86 °C. The “Toxicity” value in the data set with human (Table V) was “Flavor agent”. With `c1ccc2ccccc2c1` [naphthalene], the “decrease in the localization” value in [3] was “significant decrease”. For the compound `C#CCN(C)Cc1ccccc1` [parqyline], the “response on the uptake of radioactivity” value in data set [3] was “minimal response”. In the case of `O=Cc1ccc2c(c1)OCO2` [piperonal], the “decrease in the localization” value in data set [3] was “significant decrease”. `CCCO` [propyl alcohol, n-propanol]: the “Acute Oral LD50” value in the data set on rats (rats, oral) is listed as 5.4 q/kg.

For `NCCCCN` [putrescine], the “response on the uptake of radioactivity” value in data set [3] was “minimal response”. In the case of `c1cn[nH]c1` [pyrazole], the “response on the uptake of radioactivity” value in data set [3] is given as “minimal response”. Also, the “nitrosamine delocalization / inhibition” value in data set [4] is given as “found to delocalize nitrosamines”.

As to `CC1=C(/C=C/C(C)=C/C=C/C(C)=C/C(=O)O)C(C)(C)CCC1` [retinoic acid], in data set [3], the “response on the uptake of radioactivity” value is reported as “minimal response”. For the compound `CC1=C(/C=C/C(C)=C/C=C/C(C)=C/CO)C(C)(C)CCC1` [retinol], the “response on the uptake of radioactivity” value in [3] is listed as “minimal response”.

On to `CCC(C)O` (centres unmarked) [sec-butyl alcohol, sec-butanol], for which the “decrease in the localization” value in [5] is reported as “significant decrease”. As for `[Cl-].[Na+]` [sodium chloride, reference compound], in the data set on rats (rats, oral, comparison), the LD50 result is on record as “about 3.75 g/Kg”.

Regarding `CC(C)(C)O` [t-butanol], the “localization of [14C]NNN in bronchial epithelium” value in data set [7] (high dosage) is recorded as “almost completely abolished; also recorded: greatest inhibition”.

Dipropylene glycol monomethyl: the “Boiling Point” value in [1] is 189 °C. In the case of Methyl cyclohexanol, the “Boiling Point” value in [1] was 173 °C. With Vitamin A, the “effect on tumor development” value in data set [6] is reported as “inhibit tumor development”. Consider diaminopropane HCl, for which the “response on the uptake of radioactivity” value in data set [3] is “minimal response”. For vitamin E, in data set [6], the “effect on formation of nitrosamines on epithelial membranes” value is listed as “prevent the formation of nitrosamines”.
